Assay results reported in paper PMC4303209, “A novel phosphatidylinositol 3-kinase (PI3K) inhibitor directs a potent FOXO-dependent, p53-independent cell cycle arrest phenotype characterized by the differential induction of a subset of FOXO-regulated genes” (Breast Cancer Research : BCR, 2014).

System: MCF-7 breast cancer cells
Assay: Microarray gene expression analysis (Agilent whole human genome 4 x 44K; compound vs DMSO, LIMMA log2 fold change)
Format: cell-based
Settings: Apoptosis genes

## Oc1cccc(-c2nc(N3CCOCC3)c3oc4ncccc4c3n2)c1 [PI-103]
Gene 6899
  TBX1 log2FC: 0.079
Gene 6910
  TBX5 log2FC: 0.103
Gene 6926
  TBX3 log2FC: -0.691
Gene 6934
  TCF7L2 log2FC: 0.036
Gene 6997
  TDGF1 log2FC: 0.005
Gene 7001
  PRDX2 log2FC: 0.385
Gene 7013
  TERF1 log2FC: 0.376
Gene 7015
  TERT log2FC: -0.048
Gene 7020
  TFAP2A log2FC: -0.507
Gene 7021
  TFAP2B log2FC: -0.150
Gene 7023
  TFAP4 log2FC: 0.386
Gene 7039
  TGFA log2FC: -0.533
Gene 7040
  TGFB1 log2FC: -0.436
Gene 7043
  TGFB3 log2FC: 0.355
Gene 7046
  TGFBR1 log2FC: 0.121
Gene 7048
  TGFBR2 log2FC: 0.950
Gene 7052
  TGM2 log2FC: -0.690
Gene 7057
  THBS1 log2FC: -0.908
Gene 7067
  THRA log2FC: 0.660
Gene 7072
  TIA1 log2FC: 0.065
Gene 7073
  TIAL1 log2FC: 0.160
Gene 7074
  TIAM1 log2FC: -0.173
Gene 7076
  TIMP1 log2FC: -0.137
Gene 7082
  TJP1 log2FC: 0.317
Gene 7088
  TLE1 log2FC: 0.501
Gene 7097
  TLR2 log2FC: -0.157
Gene 7098
  TLR3 log2FC: 0.801
Gene 7101
  NR2E1 log2FC: -0.112
Gene 7110
  TMF1 log2FC: 0.594
Gene 7124
  TNF log2FC: -1.866
Gene 7126
  TNFAIP1 log2FC: -0.271
Gene 7128
  TNFAIP3 log2FC: -0.853
Gene 7132
  TNFRSF1A log2FC: -0.921
Gene 7153
  TOP2A log2FC: 0.914
Gene 7157
  TP53 log2FC: 0.057
Gene 7159
  TP53BP2 log2FC: 0.347
Gene 7161
  TP73 log2FC: -0.255
Gene 7164
  TPD52L1 log2FC: 0.154
Gene 7178
  TPT1 log2FC: 0.376
Gene 7184
  HSP90B1 log2FC: 0.295
Gene 7185
  TRAF1 log2FC: -0.626
Gene 7187
  TRAF3 log2FC: -0.946
Gene 7188
  TRAF5 log2FC: 0.350
Gene 7189
  TRAF6 log2FC: -0.154
Gene 7204
  TRIO log2FC: 0.335
Gene 7227
  TRPS1 log2FC: 0.634
Gene 7262
  PHLDA2 log2FC: -3.120
Gene 7291
  TWIST1 log2FC: 0.425
Gene 7293
  TNFRSF4 log2FC: 0.091
Gene 7301
  TYRO3 log2FC: 0.021
Gene 7311
  UBA52 log2FC: 0.306
Gene 7314
  UBB log2FC: 0.036
Gene 7316
  UBC log2FC: 0.333
Gene 7320
  UBE2B log2FC: 0.652
Gene 7323
  UBE2D3 log2FC: -0.368
Gene 7349
  UCN log2FC: 0.293
Gene 7351
  UCP2 log2FC: 0.166
Gene 7374
  UNG log2FC: -0.352
Gene 7409
  VAV1 log2FC: 0.641
Gene 7410
  VAV2 log2FC: 0.038
Gene 7415
  VCP log2FC: -0.262
Gene 7416
  VDAC1 log2FC: -0.421
Gene 7421
  VDR log2FC: -1.024
Gene 7423
  VEGFB log2FC: 0.125
Gene 7428
  VHL log2FC: -0.079
Gene 7466
  WFS1 log2FC: -0.599
Gene 7474
  WNT5A log2FC: 0.134
Gene 7476
  WNT7A log2FC: -0.086
Gene 7477
  WNT7B log2FC: -0.378
Gene 7480
  WNT10B log2FC: -0.488
Gene 7481
  WNT11 log2FC: -0.088
Gene 7483
  WNT9A log2FC: 0.041
Gene 7486
  WRN log2FC: 0.379
Gene 7490
  WT1 log2FC: -0.652
Gene 7498
  XDH log2FC: 0.004
Gene 7507
  XPA log2FC: 0.468
Gene 7516
  XRCC2 log2FC: -0.599
Gene 7518
  XRCC4 log2FC: 0.561
Gene 7529
  YWHAB log2FC: 0.178
Gene 7531
  YWHAE log2FC: 0.050
Gene 7532
  YWHAG log2FC: -0.883
Gene 7533
  YWHAH log2FC: -0.481
Gene 7534
  YWHAZ log2FC: -0.301
Gene 7564
  ZNF16 log2FC: 0.344
Gene 7703
  PCGF2 log2FC: -0.113
Gene 7818
  DAP3 log2FC: 0.276
Gene 7832
  BTG2 log2FC: -1.051
Gene 7849
  PAX8 log2FC: 0.485
Gene 7855
  FZD5 log2FC: -0.196
Gene 7857
  SCG2 log2FC: 0.168
Gene 8013
  NR4A3 log2FC: 0.337
Gene 8022
  LHX3 log2FC: 0.039
Gene 8045
  RASSF7 log2FC: 0.194
Gene 8061
  FOSL1 log2FC: -2.531
Gene 8065
  CUL5 log2FC: -0.235
Gene 8087
  FXR1 log2FC: 0.653
Gene 8091
  HMGA2 log2FC: -1.508
Gene 8200
  GDF5 log2FC: -0.438
Gene 8241
  RBM10 log2FC: -0.115
Gene 8312
  AXIN1 log2FC: 0.422
Gene 8382
  NME5 log2FC: 0.271
Gene 8398
  PLA2G6 log2FC: -0.123
Gene 8406
  SRPX log2FC: 0.201
Gene 8428
  STK24 log2FC: -0.049
Gene 8439
  NSMAF log2FC: 0.165
Gene 8445
  DYRK2 log2FC: -0.467
Gene 8451
  CUL4A log2FC: 0.376
Gene 8452
  CUL3 log2FC: 0.00335
Gene 8453
  CUL2 log2FC: 0.251
Gene 8454
  CUL1 log2FC: 0.207
Gene 8462
  KLF11 log2FC: 1.202
Gene 8473
  OGT log2FC: 0.352
Gene 8517
  IKBKG log2FC: -0.216
Gene 8535
  CBX4 log2FC: -0.090
Gene 8539
  API5 log2FC: -0.497
Gene 8565
  YARS log2FC: -0.500
Gene 8567
  MADD log2FC: 0.749
Gene 8633
  UNC5C log2FC: 0.011
Gene 8644
  AKR1C3 log2FC: 0.528
Gene 8648
  NCOA1 log2FC: 0.476
Gene 8655
  DYNLL1 log2FC: -1.055
Gene 8660
  IRS2 log2FC: 0.876
Gene 8678
  BECN1 log2FC: 0.354
Gene 8682
  PEA15 log2FC: 0.569
Gene 8692
  HYAL2 log2FC: -0.333
Gene 8717
  TRADD log2FC: 0.506
Gene 8718
  TNFRSF25 log2FC: -0.549
Gene 8737
  RIPK1 log2FC: -0.336
Gene 8738
  CRADD log2FC: -0.080
Gene 8739
  HRK log2FC: 0.399
Gene 8767
  RIPK2 log2FC: 0.379
Gene 8771
  TNFRSF6B log2FC: -1.304
Gene 8772
  FADD log2FC: -0.617
Gene 8784
  TNFRSF18 log2FC: -0.038
Gene 8793
  TNFRSF10D log2FC: -0.508
Gene 8795
  TNFRSF10B log2FC: -0.908
Gene 8797
  TNFRSF10A log2FC: -0.907
Gene 8805
  TRIM24 log2FC: 0.826
Gene 8829
  NRP1 log2FC: -0.252
Gene 8831
  SYNGAP1 log2FC: -0.399
Gene 8835
  SOCS2 log2FC: 0.381
Gene 8837
  CFLAR log2FC: -0.542
Gene 8841
  HDAC3 log2FC: -0.248
Gene 8846
  ALKBH1 log2FC: -0.111
Gene 8848
  TSC22D1 log2FC: 0.388
Gene 8851
  CDK5R1 log2FC: -0.328
Gene 8854
  ALDH1A2 log2FC: 0.042
Gene 8870
  IER3 log2FC: -2.265
Gene 8874
  ARHGEF7 log2FC: 0.044
Gene 8877
  SPHK1 log2FC: -0.416
Gene 8878
  SQSTM1 log2FC: 0.782
Gene 8879
  SGPL1 log2FC: -0.0047
Gene 8887
  TAX1BP1 log2FC: 1.267
Gene 8915
  BCL10 log2FC: 0.116
Gene 8930
  MBD4 log2FC: 0.294
Gene 8996
  NOL3 log2FC: 0.486
